From US20240166610A1, “SUBSTITUTED PYRIDAZINE PHENOL DERIVATIVES” (MEDSHINE DISCOVERY INC., priority 2021, published 2024)
Where a name gives a salt, the structure may show the parent alone.

What was measured:
NLRP3 = target: T1, NLRP3 (Homo sapiens, UniProt Q96P20); test: Detecting IC50 of NLRP3 inhibitor by using THP-1 cells (IL-1β secretion, CBA); format: cell-based; settings: PMA/LPS/ATP, IL-1β in supernatant
T1 construct: This experiment utilized the human-derived monocyte cell line THP1; endogenous in cells; host or cells: THP-1 (human monocyte line, PMA-differentiated into macrophages)
T1 sequence (Q96P20 whole entry): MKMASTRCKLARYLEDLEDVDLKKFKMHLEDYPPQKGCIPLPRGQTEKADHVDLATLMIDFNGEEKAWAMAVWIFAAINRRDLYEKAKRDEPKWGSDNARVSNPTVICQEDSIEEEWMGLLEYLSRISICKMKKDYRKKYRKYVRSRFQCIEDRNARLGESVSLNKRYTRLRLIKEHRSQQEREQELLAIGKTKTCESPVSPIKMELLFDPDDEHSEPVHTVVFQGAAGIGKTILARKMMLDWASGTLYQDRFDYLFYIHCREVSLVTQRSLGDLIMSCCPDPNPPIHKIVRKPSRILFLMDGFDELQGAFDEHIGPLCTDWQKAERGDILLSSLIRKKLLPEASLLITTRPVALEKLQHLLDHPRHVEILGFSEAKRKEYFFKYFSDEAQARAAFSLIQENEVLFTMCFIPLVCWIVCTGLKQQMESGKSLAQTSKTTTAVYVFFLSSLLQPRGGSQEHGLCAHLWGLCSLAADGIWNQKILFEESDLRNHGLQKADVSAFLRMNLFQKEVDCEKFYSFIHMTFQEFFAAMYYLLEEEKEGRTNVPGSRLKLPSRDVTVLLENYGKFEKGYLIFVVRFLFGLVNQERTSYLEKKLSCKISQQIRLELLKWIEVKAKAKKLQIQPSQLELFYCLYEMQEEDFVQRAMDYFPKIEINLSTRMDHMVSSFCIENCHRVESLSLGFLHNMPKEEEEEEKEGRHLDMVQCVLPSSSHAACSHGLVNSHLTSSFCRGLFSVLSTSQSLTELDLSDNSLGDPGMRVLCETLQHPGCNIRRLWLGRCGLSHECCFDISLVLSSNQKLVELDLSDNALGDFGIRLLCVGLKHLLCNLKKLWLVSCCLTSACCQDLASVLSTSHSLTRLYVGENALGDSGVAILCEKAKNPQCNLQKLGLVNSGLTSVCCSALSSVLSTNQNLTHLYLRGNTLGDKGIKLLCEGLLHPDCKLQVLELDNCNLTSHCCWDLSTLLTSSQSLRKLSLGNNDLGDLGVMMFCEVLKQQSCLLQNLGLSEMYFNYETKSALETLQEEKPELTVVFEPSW
Source text: 1. Experimental principle: This experiment utilized the human-derived monocyte cell line THP1 to investigate the inhibitory activity (IC50) of NLRP3 inhibitor on cellular IL-1β secretion. PMA (12-O-tetradecanoylphorbol-13-acetate) was used to differentiate the monocyte cell line THP1 into mature macrophages, which were then stimulated using LPS (lipopolysaccharide), an agonist of the Toll-like receptor TLR4, to activate the transcriptional activity of the inflammasome NLRP3 and the expression of pro-IL-1β, a precursor of IL-1β. At this time, the inhibitor of NLRP3 was added, and then ATP (adenosine triphosphate) was added to further mature and activate NLRP3, and activate downstream caspase-1. Activated caspase-1 may enzymatically process pro-IL-1β into mature IL-1β that can be secreted.
(1) The density of THP1 cells was adjusted to 5×10^5 cells/mL, then PMA was added, and the final concentration was adjusted to 100 ng/mL. The cells were inoculated 200 μL/well into a 96-well flat-bottom plate, stimulated overnight (<16 hours if possible) at 37° C. and 5% CO2.
(2) The supernatant was discarded the next day, and then the cells were carefully washed twice with Dulbecco's phosphate-buffered saline (200 μL/time).
(3) The cells were stimulated with LPS at a final concentration of 100 ng/mL, added to a 96-well plate (200 μL/well), and cultured at 37° C. and 5% CO2 for 3 hours.
The cells were incubated for 1 hour in a 37° C., 5% CO2 incubator.
(5) ATP was added to each well with a final concentration of 5 mM, and cultured overnight (>18 hours) at 37° C. and 5% CO2.
(6) On the third day, 5 μL of the supernatant was taken, diluted 10-fold, and the content of IL-1β in the supernatant was detected by cytometric bead array (CBA).

[1] = In vivo pharmacokinetic evaluation in SD rats; settings: male, rat, plasma, dose IV/PO 1/2 mg/kg; for half-life / clearance / Vd: 1 mg/kg; for half-life: IV, read-out: Half-life T1/2 (IV) (converted); for clearance: read-out: Clearance rate CL; for Vd: read-out: Tissue distribution Vdss; for AUC(0-t): PO, read-out: Area under drug-time curve AUC0-last PO; for bioavailability: read-out: Bioavailability F; for Cmax: read-out: Peak concentration Cmax
Procedure: Experimental Example 3: In Vivo Pharmacokinetic Evaluation of Compounds in SD Rats
Experimental Purpose: To Test the In Vivo Pharmacokinetics of the Compounds in SD Rats
The rodent pharmacokinetic characteristics after intravenous injection and oral administration of the compounds were tested using a standard protocol. The candidate compound was prepared as a clear solution during the experiment and given to SD rats for single intravenous injection and oral administration. The vehicle for intravenous injection and oral administration was a mixed vehicle composed of 5% dimethyl sulfoxide and 95% 5% solutol. Four male SD rats were used in this project. Two SD rats were administered intravenously, and plasma samples were collected at 0.083, 0.25, 0.5, 1, 2, 4, 8, and 24 hours after administration. The other two SD rats were administered orally by gavage, and plasma samples were collected at 0.25, 0.5, 1, 2, 4, 8, and 24 hours after administration. The plasma concentration was quantitatively analyzed by LC-MS/MS analysis method, and the pharmacokinetic parameters were calculated, such as peak concentration (Cmaz), clearance rate (CL), half-life (T1/2), […] (Vdss), area under drug-time curve (AUC0-last), bioavailability (F).

[2] = In vivo pharmacokinetic evaluation in CD-1 mice; settings: male, mouse, plasma, dose IV/PO 1/2 mg/kg; for half-life / clearance / Vd: 1 mg/kg; for half-life: IV, read-out: Half-life T1/2 (IV) (converted); for clearance: read-out: Clearance rate CL; for Vd: read-out: Tissue distribution Vdss; for AUC(0-t): PO, read-out: Area under drug-time curve AUC0-last PO; for bioavailability: read-out: Bioavailability F; for Cmax: read-out: Peak concentration Cmax
Procedure: Experimental Example 2: In Vivo Pharmacokinetic Evaluation of Compounds in CD-1 Mice
Experimental purpose: To test the in vivo pharmacokinetics of the compounds in CD-1 mice
CD-1 mice (male, 7 to 9 weeks old)
The rodent pharmacokinetic characteristics after intravenous injection and oral administration of the compounds were tested using a standard protocol. The candidate compound was prepared as a clear solution during the experiment and given to mice for single intravenous injection and oral administration. The vehicle for intravenous injection and oral administration was a mixed vehicle composed of 5% dimethyl sulfoxide and 95% 5% solutol. Four male CD-1 mice were used in this project. Two mice were administered intravenously (IV), and plasma samples were collected at 0 hours (before administration) and 0.0833, 0.25, 0.5, 1, 2, 4, 8, and 24 hours after administration. The other two mice were administered orally by gavage (PO), and plasma samples were collected at 0 hours (before administration) and 0.25, 0.5, 1, 2, 4, 8, and 24 hours after administration. The plasma concentration was quantitatively analyzed by LC-MS/MS analysis method, and the pharmacokinetic parameters were calculated, such as peak concentration (Cmax), clearance rate (CL), half-life (T1/2), […] (Vdss), area under drug-time curve (AUC0-last), bioavailability (F).

IC50 (NLRP3) [nM] | Structure (SMILES) | also measured
41.5 | Cc1cc(N[C@@H]2CCCN(C3COC3)C2)nnc1-c1ccc(C2CCCC2)cc1O [Compound 27a] | 
0.76 | Cc1cc(N[C@@H]2CCCN(C3CCC3)C2)nnc1-c1ccc2c(c1O)CCC2 [Hydrochloride of compound 19] | 
8.18 | Cc1cc2c(O)c(-c3nnc(N[C@H]4COC[C@@H]4O)cc3C)ccc2s1 [Hydrochloride of compound 66] | 
0.09 | Cc1cc(N[C@@H]2CCCN(C(C)C)C2)nnc1-c1ccc2sccc2c1O [Compound 39] | half-life [1]: 2.19 h; clearance [1]: 15.3 mL/min/kg; Vd [1]: 2.63 L/kg; AUC(0-t) [1]: 4.53 µM·h; bioavailability [1]: 85.1%; Cmax [1]: 573 nM
0.078 | Cc1cc(N[C@@H]2CCCN(C)C2)nnc1-c1ccc2ccsc2c1O [Formate of compound 45] | 
21.1 | Cc1cc(N[C@H]2CCCC[C@@H]2O)nnc1-c1ccc2sccc2c1O [Hydrochloride of compound 64] | 
16.6 | Cc1cc2c(O)c(-c3nnc(N[C@@H]4CCCC[C@H]4O)cc3C)ccc2s1 [Hydrochloride of compound 67] | 
31.1 | Cc1cc(N[C@@H]2CCCN(C3COC3)C2)nnc1-c1ccc(C2CCC2)cc1O [Compound 25] | 
19.4 | CN1CCC[C@@H](Nc2ccc(-c3ccc4sccc4c3O)nn2)C1 [Hydrochloride of compound 74] | 
0.69 | Cc1cc(N[C@@H]2CCCN(CC(C)(C)O)C2)nnc1-c1ccc2sccc2c1O [Formate of compound 47] | 
6.87 | Cc1cc(N[C@@H]2CCCN(C(=O)C3CC3)C2)nnc1-c1ccc2sccc2c1O [Compound 41] | 
0.142 | Cc1cc(N[C@@H]2CCCN(C(=O)CCN(C)C)C2)nnc1-c1ccc2sccc2c1O [Compound 51] | 
1.94 | Cc1cc(NC2CCCN(C3CC(O)C3)C2)nnc1-c1ccc2sccc2c1O (stereo not shown) [Compound 50] | 
0.85 | Cc1cc2c(O)c(-c3nnc(NCCN(C)C)cc3C)ccc2s1 [Hydrochloride of compound 58] | 
1.76 | Cc1cc2c(O)c(-c3nnc(N[C@@H]4CCCN(C)C4)cc3C)ccc2s1 [Hydrochloride of compound 43] | 
0.274 | Cc1cc(N[C@@H]2CCCN(C3CCOC3)C2)nnc1-c1ccc2sccc2c1O (stereo partly shown) [Formate of compound 42] | half-life [1]: 1.72 h; clearance [1]: 6.08 mL/min/kg; Vd [1]: 0.837 L/kg; AUC(0-t) [1]: 9.15 µM·h; bioavailability [1]: 71.2%; Cmax [1]: 2100 nM

IC50 (NLRP3) [nM] | Structure (SMILES) | also measured
 | Cc1cc(N[C@@H]2CCCN(C)C2)nnc1-c1ccc(-c2ccc(F)cc2)cc1O [Compound 4] | half-life [2]: 25.7 h; clearance [2]: 0.795 mL/min/kg; Vd [2]: 1.72 L/kg; AUC(0-t) [2]: 54.3 µM·h; bioavailability [2]: 102%; Cmax [2]: 2900 nM
0.076 | Cc1cc(N[C@@H]2CCCN(C)C2)nnc1-c1ccc2sc(F)cc2c1O [Hydrochloride of compound 44a] | 
2.09 | Cc1cc(N[C@@H]2CCCN(C3CCOCC3)C2)nnc1-c1ccc(C2CC2)cc1O [Compound 31] | 
3.21 | Cc1c(N[C@@H]2CCCC[C@H]2O)nnc(-c2ccc3sccc3c2O)c1C [Hydrochloride of compound 73] | 
0.24 | Cc1cc(N[C@@H]2CCCN(C)C2)nnc1-c1ccc2c(c1O)CCC2 [Compound 2] | 
0.52 | Cc1cc(N[C@@H]2CCCN(C3COC3)C2)nnc1-c1ccc2sccc2c1O [Compound 26] | half-life [1]: 1.1 h; clearance [1]: 12.3 mL/min/kg; Vd [1]: 0.789 L/kg; AUC(0-t) [1]: 7.4 µM·h; bioavailability [1]: 108%; Cmax [1]: 2910 nM; half-life [2]: 1.75 h; clearance [2]: 16.6 mL/min/kg; Vd [2]: 1.71 L/kg; AUC(0-t) [2]: 3.9 µM·h; bioavailability [2]: 78.8%; Cmax [2]: 2070 nM
3.39 | Cc1cc(N[C@@H]2CCCN(C3CCOC3)C2)nnc1-c1ccc(C2CC2)cc1O (stereo partly shown) [Compound 30] | 
0.882 | COC1CC(N2CCC[C@@H](Nc3cc(C)c(-c4ccc5sccc5c4O)nn3)C2)C1 (stereo partly shown) [Compound 49] | 
25.5 | Cc1cc(N[C@@H]2CCCN(C3COC3)C2)nnc1-c1ccc(C2=CCCC2)cc1O [Compound 27b] | 
3.13 | Cc1cc(N[C@@H]2CCCN(CC(N)=O)C2)nnc1-c1ccc2c(c1O)CCC2 [Compound 12b] | 
6.07 | Cc1cc(Nc2cccnc2)nnc1-c1ccc2sccc2c1O [Hydrochloride of compound 65] | 
0.289 | Cc1cc(N[C@@H]2CCCN(C3CCOCC3)C2)nnc1-c1ccc2sccc2c1O [Formate of compound 46] | 
0.318 | Cc1c(N[C@@H]2CCCN(C)C2)nnc(-c2ccc3sccc3c2O)c1C [Hydrochloride of compound 72] | 
0.19 | Cc1cc(N[C@@H]2CCCN(CC3CC3)C2)nnc1-c1ccc2sccc2c1O [Compound 40] | 
18.7 | Cc1cc(N[C@@H]2CCCN(C3COC3)C2)nnc1-c1ccc2ccccc2c1O [Compound 28] | 
4.19 | Cc1cc(N[C@@H]2CCCN(C)C2)nnc1-c1ccc2sc(F)c(F)c2c1O [Hydrochloride of compound 44b] | 
